Results taken from patent US7666437B2, “Intranasal vaccine for use against disease caused by enterotoxigenic Escherichia coli” (Universidad Nacional Autonoma de Mexico, priority 2005, dated 2010).
“And” between values parts separate entries of the source, which are not always exact repeats. Identical values can stand only once. Ends that are not written are not given here.

Key:
[1] = test system: IL-10; design: species or system BALB/c mice; conditions: mouse, in vivo
[2] = Dynamic light scattering; format: physicochemical; conditions: 1 mg/ml in 10 mm PBS pH 7.4; physiological conditions of pH and temperature
Procedure: Dynamic light scattering: One milliliter of 1 mg/ml CLE diluted in 10 mm PBS, pH 7.4 was used to evaluate the dynamic light scattering at different temperatures of 5, 15, 25, 35 and 37° C. Hydrodynamic diameter of CLE was determined using the Zed ziser nano series (Mc Malvern, USA).

[3] = test system: strain H10407 of ETEC; design: species or system enterotoxigenic Escherichia coli; conditions: in vivo
[4] = test system: IL-4; design: species or system BALB/c mice; conditions: mouse, in vivo
[5] = test system: children's sera after natural infection; format: binding
[6] = test system: T CD8+ lymphocytes; design: species or system BALB/c mice; conditions: mouse, in vivo
[7] = test system: T CD4+ lymphocytes; design: species or system BALB/c mice; conditions: mouse, in vivo
[8] = test system: IFN-gamma; design: species or system BALB/c mice; conditions: mouse, in vivo

Row | Substance | increase of IL-10 compared to the control group [1] | oligomeric structures formed (hydrodynamic diameter) [2] | positive coprocultures (excretion of ETEC) [3] | presence of diarrhea after the infection with ETEC [3] | increase of IL-4 production compared to the control group [4] | children's sera that recognized the epitope [5] | response of T CD8+ lymphocytes [6] | increase of T CD4+ lymphocytes with regard to control group [7] | response of T CD4+ lymphocytes [7] | response of INF-gamma [8] | increase of T CD4+ lymphocytes relative to the control [7]
1 | CLE: 20 amino acid common linear epitope of ETEC CFA/I fimbria, amino acids 33 to 52, with terminal cysteine in position 53 (YSPASKTFESYRVMTQVHTC; not fully specified; also: disulfide at Cys20, partner not given here; listed as Escherichia coli) | 0.8 times | trimeric structures | 100% and 50% | change of consistency of the feces | about 2.6 times | 100% | slightly higher | about 2 fold | slightly higher | – | –
2 | CTB | – | – | 100% and 50% | inconsistency of feces up to the third day | – | – | very similar to the control group | – | – | considerable response | 0.4 times
